From patent US9040542B2, “Solid forms of gyrase inhibitor (R)-1-ethyl-3-[6-fluoro-5-[2-(1-hydroxy-1-methyl-ethyl)pryimidin-5-yl]-7-(tetrahydrofuran-2-yl)-1H-benzimidazol-2-yl]urea” (priority 2011, dated 2015)
≈ marks a conversion by molar mass, not a printed value. Where “and” joins values, the source holds several entries; their conditions need not be identical. Identical values can stand only once.

Assays:
[1] = tested on: Staphylococcus aureus ATCC 29213 GyrB T173I; test: MIC, Protocol #1 microdilution broth; type: cell-based
[2] = tested on: Bacillus subtilis ATCC 6638; test: MIC, Protocol #1 microdilution broth; type: cell-based
[3] = tested on: Neisseria gonorrhoeae ATCC 35541; test: MIC, Protocol #3 agar dilution; type: cell-based
Mycobacterium avium 103 = test: MIC, Protocol #4 Mycobacterium species; type: cell-based
N. asteroids 2039 = test: MIC, Protocol #4 Mycobacterium species; type: cell-based
N. nova 10 = test: MIC, Protocol #4 Mycobacterium species; type: cell-based
[4] = tested on: M. tuberculosis Erdman ATCC 35801; test: MIC, Protocol #4 Mycobacterium species; type: cell-based
M. abscessus MC 6005 = test: MIC, Protocol #4 Mycobacterium species; type: cell-based
M. abscessus MC 5908 = test: MIC, Protocol #4 Mycobacterium species; type: cell-based; conditions: in µg/mL
M. abscessus BB4 = test: MIC, Protocol #4 Mycobacterium species; type: cell-based
M. abscessus MC 5960 = test: MIC, Protocol #4 Mycobacterium species; type: cell-based
M. abscessus MC 5812 = test: MIC, Protocol #4 Mycobacterium species; type: cell-based
M. abscessus MC 5901 = test: MIC, Protocol #4 Mycobacterium species; type: cell-based
M. abscessus BB6 = test: MIC, Protocol #4 Mycobacterium species; type: cell-based
M. abscessus BB10 = test: MIC, Protocol #4 Mycobacterium species; type: cell-based
M. abscessus MC 6142 = test: MIC, Protocol #4 Mycobacterium species; type: cell-based
M. abscessus MC 6111 = test: MIC, Protocol #4 Mycobacterium species; type: cell-based
M. abscessus MC 6153 = test: MIC, Protocol #4 Mycobacterium species; type: cell-based
Staphylococcus aureus = test: MIC90 panel, Protocol #1 microdilution broth; type: cell-based; conditions: 67 isolates
Enterococcus faecalis = test: MIC90 panel, Protocol #1 microdilution broth; type: cell-based; conditions: 34 isolates
Enterococcus faecium = test: MIC90 panel, Protocol #1 microdilution broth; type: cell-based; conditions: 33 isolates
[5] = tested on: β-haemolytic streptococci (Groups A, B, C and G); test: MIC90 panel, Protocol #1 microdilution broth; type: cell-based; conditions: 28 isolates
Acinetobacter baumannii = test: MIC90 panel, Protocol 2 microdilution broth; type: cell-based; conditions: 12 isolates
Text: (§1) The specific protocols used were as follows:
(§2) Drug dilutions, inoculation, MIC determination: • 1.

Enterobacter cloacae = test: MIC90 panel, Protocol 2 microdilution broth; type: cell-based; conditions: 12 isolates
Text: as §1, §2

Escherichia coli = test: MIC90 panel, Protocol 2 microdilution broth; type: cell-based; conditions: 12 isolates
Text: as §1, §2

Haemophilus influenzae = test: MIC90 panel, Protocol 2 microdilution broth; type: cell-based; conditions: 55 isolates
Text: as §1, §2

Klebsiella pneumoniae = test: MIC90 panel, Protocol 2 microdilution broth; type: cell-based; conditions: 12 isolates
Text: as §1, §2

Moraxella catarrhalis = test: MIC90 panel, Protocol 2 microdilution broth; type: cell-based; conditions: 26 isolates
Text: as §1, §2

Proteus mirabilis = test: MIC90 panel, Protocol 2 microdilution broth; type: cell-based; conditions: 12 isolates
Text: as §1, §2

Pseudomonas aeruginosa = test: MIC90 panel, Protocol 2 microdilution broth; type: cell-based; conditions: 12 isolates
Text: as §1, §2

Neisseria meningitidis = test: MIC90 panel, Protocol #3 agar dilution; type: cell-based; conditions: 12 isolates
[6] = tested on: Bacteroides and Parabacter spp.; test: MIC90 panel, Protocol #3 agar dilution; type: cell-based; conditions: 26 isolates
Bacteroides fragilis = test: MIC90 panel, Protocol #3 agar dilution; type: cell-based; conditions: 25 isolates
Clostridium difficile = test: MIC90 panel, Protocol #3 agar dilution; type: cell-based; conditions: 16 isolates
Fusobacterium spp. = test: MIC90 panel, Protocol #3 agar dilution; type: cell-based; conditions: 16 isolates
Peptostreptococcus spp. = test: MIC90 panel, Protocol #3 agar dilution; type: cell-based; conditions: 11 isolates
Prevotella spp. = test: MIC90 panel, Protocol #3 agar dilution; type: cell-based; conditions: 13 isolates
[7] = tested on: Moraxella catarrhalis ATCC 25238; test: MIC, Protocol 2 microdilution broth, Gram negatives; set-up: unit not given beside the values
[8] = tested on: Moraxella catarrhalis ATCC 49143; test: as above; set-up: unit not given beside the values

CCNC(=O)Nc1nc2cc(-c3cnc(C(C)(C)O)nc3)c(F)c([C@H]3CCCO3)c2[nH]1 [Compound 24, 1-ethyl-3-[6-fluoro-5-[2-(1-hydroxy-1-methyl-ethyl)pyrimidin-5-yl]-7-[(2R)-tetrahydrofuran-2-yl]-1H-benzimidazol-2-yl]urea]
MIC [1]: 0.3 µg/mL (≈ 0.7 µM)
MIC [2]: 2 µg/mL (≈ 4.67 µM)
MIC [3]: 0.42 µg/mL (≈ 0.98 µM)
MIC (Mycobacterium avium 103): 0.18 µg/mL (≈ 0.42 µM)
MIC (N. asteroids 2039): 1 µg/mL (≈ 2.33 µM)
MIC (N. nova 10): 1 µg/mL (≈ 2.33 µM)
MIC [4]: 0.06 µg/mL (≈ 0.14 µM)
MIC (M. abscessus MC 6005): 1 µg/mL (≈ 2.33 µM)
MIC (M. abscessus MC 5908): 1 and 1.5
MIC (M. abscessus BB4): 2 µg/mL (≈ 4.67 µM)
MIC (M. abscessus MC 5960): 0.5 µg/mL (≈ 1.17 µM)
MIC (M. abscessus MC 5812): 1 µg/mL (≈ 2.33 µM)
MIC (M. abscessus MC 5901): 1 µg/mL (≈ 2.33 µM)
MIC (M. abscessus BB6): 0.5 µg/mL (≈ 1.17 µM)
MIC (M. abscessus BB10): 0.015 µg/mL (≈ 0.035 µM)
MIC (M. abscessus MC 6142): 0.5 µg/mL (≈ 1.17 µM)
MIC (M. abscessus MC 6111): 0.5 µg/mL (≈ 1.17 µM)
MIC (M. abscessus MC 6153): 1 µg/mL (≈ 2.33 µM)
MIC90 (Staphylococcus aureus): 0.03 µg/mL (≈ 0.07 µM)
MIC Range (Staphylococcus aureus): 8 to 60 ng/mL
MIC90 (Enterococcus faecalis): 0.06 µg/mL (≈ 0.14 µM)
MIC Range (Enterococcus faecalis): 0.015 to 0.12 µg/mL
MIC90 (Enterococcus faecium): 0.12 µg/mL (≈ 0.28 µM)
MIC Range (Enterococcus faecium): 3 to 250 ng/mL
MIC90 [5]: 0.12 µg/mL (≈ 0.28 µM)
MIC Range [5]: 0.015 to 0.12 µg/mL
MIC90 (Acinetobacter baumannii): > 8 µg/mL
MIC90 (Enterobacter cloacae): > 8 µg/mL
MIC90 (Escherichia coli): > 8 µg/mL
MIC90 (Haemophilus influenzae): 1 µg/mL (≈ 2.33 µM)
MIC Range (Haemophilus influenzae): 0.06 to 2 µg/mL
MIC90 (Klebsiella pneumoniae): > 8 µg/mL
MIC90 (Moraxella catarrhalis): 0.03 µg/mL (≈ 0.07 µM)
MIC Range (Moraxella catarrhalis): ≦0.004-0.03 μg/ml
MIC90 (Proteus mirabilis): > 8 µg/mL
MIC90 (Pseudomonas aeruginosa): > 8 µg/mL
MIC90 (Neisseria meningitidis): 0.03 µg/mL (≈ 0.07 µM)
MIC Range (Neisseria meningitidis): 8 to 60 ng/mL
MIC90 [6]: 16 µg/mL (≈ 37.3 µM)
MIC Range [6]: 0.12 to 16 µg/mL
MIC90 (Bacteroides fragilis): 16 µg/mL (≈ 37.3 µM)
MIC Range (Bacteroides fragilis): 1 to 16 µg/mL
MIC Range (Clostridium difficile): 0.06 to 4 µg/mL
MIC90 (Clostridium difficile; Clostridioides difficile): 0.25 µg/mL (≈ 0.583 µM)
MIC90 (Fusobacterium spp.): > 16 µg/mL
MIC90 (Peptostreptococcus spp.): > 16 µg/mL
MIC90 (Prevotella spp.): 16 µg/mL (≈ 37.3 µM)
MIC Range (Prevotella spp.): 0.06 to 16 µg/mL
MIC [7]: ≦0.016
MIC [8]: ≦0.016
